In assay [1] the test system is Mosquito (Aedes aeqypti) larvae. Description: Mosquito (Aedes aeqypti) Larval Assay. The format is in vivo. Conditions: first instar larvae, 25° C., 24 hours, lowest dose to inhibit motility ≧50% of untreated controls, half-log intervals, read-out: Minimum Effective Concentration (MEC). The protocol: Mosquito (Aedes aeqypti) Larval Assay
Compounds were dissolved in DMSO and aliquots were spotted to empty wells. First instar mosquito larvae and maintenance media were added to the wells to obtain between 8 and 15 larvae per well in the appropriate final assay volume. Larvae were incubated in the treated media at 25° C. for 24 hours. Mosquito larvae motility was measured at 24 hours. Each compound was tested at half-log intervals, and endpoint results were recorded as Minimum Effective Concentration (MEC) in μM. MEC is an objective assessment of organism motility, and is the lowest dose to inhibit motility ≧50% of untreated controls.

Assay [2] relates to Flea (Ctenocephalides felis). Nature of the assay: Flea (Ctenocephalides felis) Membrane Feed Assay-Adult. Conditions: adult fleas fed on treated citrated bovine blood for 24 hours, lowest dose to cause mortality ≧50%, half-log intervals, read-out: Minimum Effective Concentration (MEC). It counts as in vivo. The procedure:
Flea (Ctenocephalides felis) Membrane Feed Assay-Adult
Compounds were dissolved in DMSO and aliquots were added to citrated bovine blood in membrane covered wells warmed to 37° C. Adult fleas were newly emerged (3-7 days) and unfed. Feeding wells containing approximately 10 adult fleas were placed onto the treated blood wells, and the fleas were allowed to feed on the treated blood for 24 hours. […] Each compound was tested at half-log intervals, and endpoint data was recorded as Minimum Effective Concentration in μM. MEC is a subjective visual assessment of organism viability, and is the lowest dose to cause mortality ≧50%.

The text below walks through data of US9221835B2, “Spirocyclic derivatives as antiparasitic agents” (Zoetis Services LLC, priority 2012, dated 2015).

Structures can show the parent of a compound that is named as a salt.

In the case of `CC(C)C(=O)N1CC2(C1)OCc1cc(C3=NCC(c4cc(Cl)c(Cl)c(Cl)c4)(C(F)(F)F)C3)ccc12` (stereo not drawn) [Example 2, 2-methyl-1-(5′-(3-(3,4,5-trichlorophenyl)-3-(trifluoromethyl)-3,4-dihydro-2H-pyrrol-5-yl)-3′H-spiro[azetidine-3,1′-isobenzofuran]-1-yl)propan-1-one], the minimal effective concentration in assay [1] is 0.1 µM.
The same measure, in the same setting: the same measure for `CS(=O)(=O)CC(=O)N1CC2(C1)OCc1cc(C3=NCC(c4cc(Cl)c(F)c(Cl)c4)(C(F)(F)F)C3)ccc12` (stereo not drawn) [Example 3, 1-(5′-(3-(3,5-dichloro-4-fluorophenyl)-3-(trifluoromethyl)-3,4-dihydro-2H-pyrrol-5-yl)-3′H-spiro[azetidine-3,1′-isobenzofuran]-1-yl)-2-(methylsulfonyl)ethanone]: 0.03 µM; for `CC(C)C(=O)N1CC2(C1)OCc1cc(C3=NCC(c4cc(Cl)c(F)c(Cl)c4)(C(F)(F)F)C3)ccc12` (stereo not drawn) [Example 4, 1-(5′-(3-(3,5-dichloro-4-fluorophenyl)-3-(trifluoromethyl)-3,4-dihydro-2H-pyrrol-5-yl)-3′H-spiro[azetidine-3,1′-isobenzofuran]-1-yl)-2-methyl propan-1-one]: 0.1 µM.
Turning to `CS(=O)(=O)CC(=O)N1CC2(C1)OCc1cc(C3=NCC(c4cc(Cl)cc(Cl)c4)(C(F)(F)F)C3)ccc12` (stereo not drawn) [Example 5, 1-(5′-(3-(3,5-dichlorophenyl)-3-(trifluoromethyl)-3,4-dihydro-2H-pyrrol-5-yl)-3′H-spiro[azetidine-3,1′-isobenzofuran]-1-yl)-2-(methylsulfonyl)ethanone], the results for the minimal effective concentration in assay [2] and in assay [1] were 0.3 µM and 0.03 µM, respectively.
Take `CS(=O)(=O)CC(=O)N1CC2(C1)OCc1cc(C3=COC(c4cc(Cl)cc(Cl)c4)(C(F)(F)F)C3)ccc12` (stereo not drawn) [Example 7, 5′-[5-(3,5-dichlorophenyl)-5-(trifluoromethyl)-4,5-dihydrofuran-3-yl]-1-[(methylsulfonyl)acetyl]-3′H-spiro[azetidine-3,1′-[2]benzofuran]]: the minimal effective concentration in assay [1] was over 3 µM.
Same read-out and setting: the same measure for `CC(C)C(=O)N1CC2(C1)OCc1cc(C3=COC(c4cc(Cl)cc(Cl)c4)(C(F)(F)F)C3)ccc12` (stereo not drawn) [Example 8, 5′-[5-(3,5-dichlorophenyl)-5-(trifluoromethyl)-4,5-dihydrofuran-3-yl]-1-isobutyryl-3′H-spiro[azetidine-3,1′-[2]benzofuran]]: over 3 µM.
Still for that read-out and setting: the same measure for `CS(=O)(=O)CC(=O)N1CC2(C1)OCc1cc(C3=COC(c4cc(Cl)c(Cl)c(Cl)c4)(C(F)(F)F)C3)ccc12` (stereo not drawn) [Example 9, 2-(methylsulfonyl)-1-(5′-(5-(3,4,5-trichlorophenyl)-5-(trifluoromethyl)-4,5-dihydrofuran-3-yl)-3′H-spiro[azetidine-3,1′-isobenzofuran]-1-yl)ethanone]: over 3 µM; for `CC(C)C(=O)N1CC2(C1)OCc1cc(C3=COC(c4cc(Cl)c(Cl)c(Cl)c4)(C(F)(F)F)C3)ccc12` (stereo not drawn) [Example 10]: over 3 µM.
The same measure, in the same setting: the same measure for `CS(=O)(=O)CC(=O)N1CC2(C1)OCc1cc(C3=COC(c4cc(Cl)c(F)c(Cl)c4)(C(F)(F)F)C3)ccc12` (stereo not drawn) [Example 11, 5′-[5-(3,5-dichloro-4-fluorophenyl)-5-(trifluoromethyl)-4,5-dihydrofuran-3-yl]-1-[(methylsulfonyl)acetyl]-3′H-spiro[azetidine-3,1′-[2]benzofuran]]: over 3 µM.
For the compound `CC(C)C(=O)N1CC2(C1)OCc1cc(C3=COC(c4cc(Cl)c(F)c(Cl)c4)(C(F)(F)F)C3)ccc12` (stereo not drawn) [Example 12, 5′-[5-(3,5-dichloro-4-fluorophenyl)-5-(trifluoromethyl)-4,5-dihydrofuran-3-yl]-1-isobutyryl-3′H-spiro[azetidine-3,1′-[2]benzofuran]], in assay [1], the minimal effective concentration was over 3 µM.
Consider `CC(C)C(=O)N1CC2(C1)OCc1cc(C3=NNC(c4cc(Cl)c(Cl)c(Cl)c4)(C(F)(F)F)C3)ccc12` (stereo not drawn) [Example 17], for which the minimal effective concentration in assay [2] is at least 3 µM.
For `CS(=O)(=O)CC(=O)N1CC2(C1)OCc1cc(C3=NNC(c4cc(Cl)c(Cl)c(Cl)c4)(C(F)(F)F)C3)ccc12` (stereo not drawn) [Example 18, 2-(methylsulfonyl)-1-(5′-(5-(3,4,5-trichlorophenyl)-5-(trifluoromethyl)-4,5-dihydro-1H-pyrazol-3-yl)-3′H-spiro[azetidine-3,1′-isobenzofuran]-1-yl)ethanone hydrochloride], the minimal effective concentration in assay [2] was at least 3 µM.
As to `CC(C)C(=O)N1CC2(C1)OCc1cc(C3=NNC(c4cc(Cl)cc(Cl)c4)(C(F)(F)F)C3)ccc12` (stereo not drawn) [Example 19, 1-(5′-(5-(3,5-dichlorophenyl)-5-(trifluoromethyl)-4,5-dihydro-1H-pyrazol-3-yl)-3′H-spiro[azetidine-3,1′-isobenzofuran]-1-yl)-2-methylpropan-1-one hydrochloride], the results for the minimal effective concentration in assay [2] and in assay [1] were at least 3 µM and 0.1 µM, respectively.
For `CS(=O)(=O)CC(=O)N1CC2(C1)OCc1cc(C3=NNC(c4cc(Cl)cc(Cl)c4)(C(F)(F)F)C3)ccc12` (stereo not drawn) [Example 20], the minimal effective concentration in assay [2] was at least 3 µM; in assay [1] it was 0.1 µM.
On to `CC(C)C(=O)N1CC2(C1)OCc1cc(N3CCC(c4cc(Cl)cc(Cl)c4)(C(F)(F)F)C3)ccc12` (stereo not drawn) [Example 24], for which the figures for the minimal effective concentration in assay [2] and in assay [1] were at least 3 µM and over 3 µM, respectively.
`CC(C)C(=O)N1CC2(C1)OCc1cc(N3CCC(c4cc(Cl)c(Cl)c(Cl)c4)(C(F)(F)F)C3)ccc12` (stereo not drawn) [Example 25]: the minimal effective concentration was at least 3 µM in assay [2] and over 3 µM in assay [1].
Take `CS(=O)(=O)CC(=O)N1CC2(C1)OCc1cc(C3=NOC(c4cc(Cl)c(F)c(Cl)c4)(C(F)(F)F)O3)ccc12` (stereo not drawn) [Example 27, 1-(5′-(5-(3,5-dichloro-4-fluorophenyl)-5-(trifluoromethyl)-1,4,2-dioxazol-3-yl)-3′H-spiro[azetidine-3,1′-isobenzofuran]-1-yl)-2-(methylsulfonyl)ethanone]: the minimal effective concentration in assay [2] is at least 3 µM; in assay [1] it was over 3 µM.
On the same counts, the results for `CS(=O)(=O)CC(=O)N1CC2(C1)OCc1cc(C3=NOC(c4cc(Cl)cc(Cl)c4)(C(F)(F)F)O3)ccc12` (stereo not drawn) [Example 29, 1-(5-(5-(3,5-dichlorophenyl)-5-(trifluoromethyl)-1,4,2-dioxazol-3-yl)-3′H-spiro[azetidine-3,1′-isobenzofuran]-1-yl)-2-(methylsulfonyl)ethanone] are at least 3 µM and over 3 µM.
On to `CS(=O)(=O)CC(=O)N1CC2(C1)OCc1cc(C3=NOC(c4cc(Cl)c(Cl)c(Cl)c4)(C(F)(F)F)O3)ccc12` (stereo not drawn) [Example 32, 2-(methylsulfonyl)-1-(5′-(5-(3,4,5-trichlorophenyl)-5-(trifluoromethyl)-1,4,2-dioxazol-3-yl)-3′H-spiro[azetidine-3,1′-isobenzofuran]-1-yl)ethanone], for which the results for the minimal effective concentration in assay [2] and in assay [1] were at least 3 µM and over 3 µM, respectively.
